From patent US20260116920A1, “HUMAN TRANSFERRIN RECEPTOR BINDING PEPTIDE” (PEPTIDREAM INC., priority 2021, published 2026)
Starred links: 1 amine or outer side, 2 acyl side, 3 side chain; linkers in the order of their positions; H or OH if unused. Positions of bridges follow the written chain, without caps; N, C: chain ends. Non-standard residues stand in square brackets, D forms with d. Residues, ends and D or L forms follow the SMILES beside them. Groups on a side chain read outwards from the residue. *: point of attachment. Trp(1-CH2COOH) = N[C@@H](Cc1cn(CC(=O)O)c2ccccc12)C(=O)O; Phe(3-COOH) = N[C@@H](Cc1cccc(C(=O)O)c1)C(=O)O; NMePhe(3-Cl) = CN[C@@H](Cc1cccc(Cl)c1)C(=O)O; Piperazinyl(4-CH2COOH) = O=C(O)CN1CCN(*)CC1; NMeY = CN[C@@H](Cc1ccc(O)cc1)C(=O)O; NH(CH2CH2O)4Me = COCCOCCOCCOCCN*; PEG4 = NCCOCCOCCOCCOCCC(=O)O; Carboxymethyl = O=C(O)C*; CO = O=C([*:1])[*:2]; X4 = COCC(COC)N*

These compounds were tested against T1, human transferrin receptor (hTfR) (Homo sapiens, UniProt P02786) (assay: Evaluation of molecular interaction between transferrin receptor (hTfR) and peptide using surface plasmon resonance (SPR)). Conditions: surface plasmon resonance, binding to hTfR; KD class symbol; read-out: SPR (KD value).
T1 construct: made in house
Format: binding
How it was run: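 KD values are derived by least-squares fitting of single-cycle kinetic sensorgrams. Peptide series (5–100 nM) flows over recombinant hTfR dimer immobilized on a Ni-NTA chip by EDC/NHS coupling, in pH 8.0 HEPES buffer containing 0.1% BSA and 1.0% DMSO.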

T1 sequence (P02786 89-760 limits assumed): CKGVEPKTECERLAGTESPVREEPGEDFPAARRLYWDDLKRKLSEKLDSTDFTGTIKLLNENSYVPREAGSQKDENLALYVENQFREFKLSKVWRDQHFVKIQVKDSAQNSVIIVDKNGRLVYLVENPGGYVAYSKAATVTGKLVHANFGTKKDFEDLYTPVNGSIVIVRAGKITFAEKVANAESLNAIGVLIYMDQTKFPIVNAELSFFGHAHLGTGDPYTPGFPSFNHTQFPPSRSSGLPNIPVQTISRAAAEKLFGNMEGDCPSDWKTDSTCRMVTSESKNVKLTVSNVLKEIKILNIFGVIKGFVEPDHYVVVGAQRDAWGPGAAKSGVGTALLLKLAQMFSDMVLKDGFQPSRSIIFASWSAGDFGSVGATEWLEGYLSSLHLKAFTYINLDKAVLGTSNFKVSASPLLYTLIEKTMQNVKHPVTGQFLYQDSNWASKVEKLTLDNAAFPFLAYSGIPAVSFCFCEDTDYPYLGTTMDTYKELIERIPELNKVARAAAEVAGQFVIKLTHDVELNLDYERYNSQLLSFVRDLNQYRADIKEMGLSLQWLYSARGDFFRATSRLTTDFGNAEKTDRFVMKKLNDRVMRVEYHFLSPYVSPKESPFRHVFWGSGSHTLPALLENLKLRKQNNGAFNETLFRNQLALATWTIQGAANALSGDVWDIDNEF

CC[C@H](C)[C@@H]1NC(=O)[C@H](Cc2ccc(OCC(=O)O)cc2)NC(=O)[C@H](Cc2ccc(O)cc2)NC(=O)[C@H](CC(N)=O)NC(=O)[C@H](Cc2cn(CC(=O)O)c3ccccc23)NC(=O)[C@H](C(C)C)NC(=O)[C@H](Cc2cccc(Cl)c2)N(C)C(=O)[C@H](C(C)C)NC(=O)[C@H](C)NC(=O)CSC[C@@H](C(=O)NCCOCCOCCOCCOCCC(N)=O)NC(=O)[C@H](Cc2ccc(O)cc2)N(C)C(=O)[C@H](Cc2ccccc2)NC(=O)[C@H](CCC(=O)NCCOCCOCCOCCOCCOCCOCCOCCOC)NC(=O)[C@H](CCCNC(=N)N)NC(=O)[C@H]([C@@H](C)CC)NC1=O [compound 102] and CC[C@H](C)[C@@H]1NC(=O)[C@H](Cc2ccc(OCC(=O)O)cc2)NC(=O)[C@H](Cc2ccc(O)cc2)NC(=O)[C@H](CC(N)=O)NC(=O)[C@H](Cc2cn(CC(=O)O)c3ccccc23)NC(=O)[C@H](C(C)C)NC(=O)[C@H](Cc2cccc(Cl)c2)N(C)C(=O)[C@H](C(C)C)NC(=O)[C@H](C)NC(=O)CSC[C@@H](C(=O)NCCOCCOCCOCCOCCC(N)=O)NC(=O)[C@H](Cc2ccc(O)cc2)N(C)C(=O)[C@H](Cc2cccc(C(=O)O)c2)NC(=O)[C@H](CCCNC(=N)N)NC(=O)[C@H](CCC(=O)NCCOCCOCCOCCOCCOCCOCCOCCOC)NC(=O)[C@H]([C@@H](C)CC)NC1=O [compound 103] fall in the same range of Kd: 1 to 100 nM for the first, 1 to 100 nM for the second.

CC[C@H](C)[C@@H]1NC(=O)[C@H](Cc2ccc(OCC(=O)O)cc2)NC(=O)[C@H](Cc2ccc(O)cc2)NC(=O)[C@H](CC(N)=O)NC(=O)[C@H](Cc2cn(CC(=O)O)c3ccccc23)NC(=O)[C@H](C(C)C)NC(=O)[C@H](Cc2cccc(Cl)c2)N(C)C(=O)[C@H](C(C)C)NC(=O)[C@H](C)NC(=O)CSC[C@@H](C(=O)NCCOCCOCCOCCOCCC(N)=O)NC(=O)[C@H](Cc2ccc(O)cc2)N(C)C(=O)[C@H](Cc2ccccc2)NC(=O)[C@H](CCCNC(=N)N)NC(=O)[C@H](CCC(N)=O)NC(=O)[C@H]([C@@H](C)CC)NC1=O [compound 104] and CC[C@H](C)[C@@H]1NC(=O)[C@H](Cc2ccc(OCC(=O)O)cc2)NC(=O)[C@H](Cc2ccc(O)cc2)NC(=O)[C@H](CC(N)=O)NC(=O)[C@H](Cc2cn(CC(=O)O)c3ccccc23)NC(=O)[C@H](C(C)C)NC(=O)[C@H](Cc2cccc(Cl)c2)N(C)C(=O)[C@H](C(C)C)NC(=O)[C@H](C)NC(=O)CSC[C@@H](C(=O)NCCOCCOCCOCCOCCC(N)=O)NC(=O)[C@H](Cc2ccc(O)cc2)N(C)C(=O)[C@H](Cc2ccccc2)NC(=O)[C@H](CCC(N)=O)NC(=O)[C@H](CCCNC(=N)N)NC(=O)[C@H]([C@@H](C)CC)NC1=O [compound 105] fall in the same range of Kd: 1 to 100 nM for the first, 1 to 100 nM for the second.

First: CC[C@H](C)[C@@H]1NC(=O)[C@H](Cc2ccc(O)cc2)NC(=O)[C@H](Cc2ccc(O)cc2)NC(=O)[C@H](CC(N)=O)NC(=O)[C@H](Cc2c[nH]c3ccccc23)NC(=O)[C@H](C(C)C)NC(=O)[C@H](Cc2ccccc2)N(C)C(=O)[C@H](C(C)C)NC(=O)[C@H](C)NC(=O)CSC[C@@H](C(=O)NCC(=O)N[C@H](CCC(=O)O)C(=O)N[C@H](CCC(=O)O)C(=O)N[C@H](CCC(=O)O)C(=O)N[C@H](CCC(=O)O)C(=O)N[C@H](CCC(=O)O)C(=O)N[C@@H](CSCC(=O)NC)C(N)=O)NC(=O)[C@H](Cc2ccc(O)cc2)N(C)C(=O)[C@H](Cc2ccc(O)cc2)NC(=O)[C@H](CCCNC(=N)N)NC(=O)[C@H](CCCNC(=N)N)NC(=O)[C@H]([C@@H](C)CC)NC1=O [compound 107]
Second: CC[C@H](C)[C@@H]1NC(=O)[C@H](Cc2ccc(OCC(=O)O)cc2)NC(=O)[C@H](Cc2ccc(O)cc2)NC(=O)[C@H](CC(N)=O)NC(=O)[C@H](Cc2c[nH]c3ccccc23)NC(=O)[C@H](C(C)C)NC(=O)[C@H](Cc2cccc(Cl)c2)N(C)C(=O)[C@H](C(C)C)NC(=O)[C@H](C)NC(=O)CSC[C@@H](C(=O)NCCOCCOCCOCCOCCC(N)=O)NC(=O)[C@H](Cc2ccc(O)cc2)N(C)C(=O)[C@H](Cc2ccccc2)NC(=O)[C@H](CCCNC(=N)N)NC(=O)[C@H](CCCNC(=N)N)NC(=O)[C@H]([C@@H](C)CC)NC1=O [compound 109]
The Kd of the first is higher: 1 to 100 nM for the first, < 1 nM for the second. The second binds more tightly here.

Compared with CC[C@H](C)[C@@H]1NC(=O)[C@H](Cc2ccc(OC)cc2)NC(=O)[C@H](Cc2ccc(O)cc2)NC(=O)[C@H](CC(N)=O)NC(=O)[C@H](Cc2cn(CC(=O)O)c3ccccc23)NC(=O)[C@H](C(C)C)NC(=O)[C@H](Cc2cccc(Cl)c2)N(C)C(=O)[C@H](C(C)C)NC(=O)[C@H](C)NC(=O)CSC[C@@H](C(=O)NCCOCCOCCOCCOCCC(N)=O)NC(=O)[C@H](Cc2ccc(O)cc2)N(C)C(=O)[C@H](Cc2ccccc2)NC(=O)[C@H](CCCNC(=N)N)NC(=O)[C@H](CCCNC(=N)N)NC(=O)[C@H]([C@@H](C)CC)NC1=O [compound 108], CC[C@H](C)[C@@H]1NC(=O)[C@H](Cc2ccc(OCC(=O)O)cc2)NC(=O)[C@H](Cc2ccc(O)cc2)NC(=O)[C@H](CC(N)=O)NC(=O)[C@H](Cc2cn(CC(=O)O)c3ccccc23)NC(=O)[C@H](C(C)C)NC(=O)[C@H](Cc2cccc(Cl)c2)N(C)C(=O)[C@H](C(C)C)NC(=O)[C@H](C)NC(=O)CSC[C@@H](C(=O)NCCOCCOCCOCCOCCC(N)=O)NC(=O)[C@H](Cc2ccc(O)cc2)N(C)C(=O)[C@H](Cc2ccccc2)NC(=O)[C@H](CCCNC(=N)N)NC(=O)[C@H](CCC(=O)NC(COC)COC)NC(=O)[C@H]([C@@H](C)CC)NC1=O [compound 111] is higher in Kd: < 1 nM for the first, 1 to 100 nM for the second.

CC[C@H](C)[C@@H]1NC(=O)[C@H](Cc2ccc(OCC(=O)O)cc2)NC(=O)[C@H](Cc2ccc(O)cc2)NC(=O)[C@H](CC(N)=O)NC(=O)[C@H](Cc2cn(CC(=O)O)c3ccccc23)NC(=O)[C@H](C(C)C)NC(=O)[C@H](Cc2cccc(Cl)c2)N(C)C(=O)[C@H](C(C)C)NC(=O)[C@H](C)NC(=O)CSC[C@@H](C(=O)NCCOCCOCCOCCOCCC(N)=O)NC(=O)[C@H](Cc2ccc(O)cc2)N(C)C(=O)[C@H](Cc2ccccc2)NC(=O)[C@H](CCCNC(=N)N)NC(=O)[C@H](CCC(=O)NCCOCCOCCOCCOC)NC(=O)[C@H]([C@@H](C)CC)NC1=O [compound 110] and CC[C@H](C)[C@@H]1NC(=O)[C@H](Cc2ccc(OCC(=O)O)cc2)NC(=O)[C@H](Cc2ccc(O)cc2)NC(=O)[C@H](CC(N)=O)NC(=O)[C@H](Cc2c[nH]c3ccccc23)NC(=O)[C@H](C(C)C)NC(=O)[C@H](Cc2cccc(Cl)c2)N(C)C(=O)[C@H](C(C)C)NC(=O)[C@H](C)NC(=O)CSC[C@@H](C(=O)NCCOCCOCCOCCOCCC(N)=O)NC(=O)[C@H](Cc2ccc(O)cc2)N(C)C(=O)[C@H](Cc2ccccc2)NC(=O)[C@H](CCCNC(=N)N)NC(=O)[C@H](CCC(=O)NCCOCCOCCOCCOC)NC(=O)[C@H]([C@@H](C)CC)NC1=O [compound 113] fall in the same range of Kd: 1 to 100 nM for the first, 1 to 100 nM for the second.

Compared with CC[C@H](C)[C@@H]1NC(=O)[C@H](Cc2ccc(OCC(=O)O)cc2)NC(=O)[C@H](Cc2ccc(O)cc2)NC(=O)[C@H](CC(N)=O)NC(=O)[C@H](Cc2c[nH]c3ccccc23)NC(=O)[C@H](C(C)C)NC(=O)[C@H](Cc2cccc(Cl)c2)N(C)C(=O)[C@H](C(C)C)NC(=O)[C@H](C)NC(=O)CSC[C@@H](C(=O)NCCOCCOCCOCCOCCC(N)=O)NC(=O)[C@H](Cc2ccc(O)cc2)N(C)C(=O)[C@H](Cc2ccccc2)NC(=O)[C@H](CCCNC(=N)N)NC(=O)[C@H](CCC(=O)NCCOCCOCCOCCOCCOCCOCCOCCOC)NC(=O)[C@H]([C@@H](C)CC)NC1=O [compound 112], CC[C@H](C)[C@@H]1NC(=O)[C@H](Cc2ccc(OCC(=O)O)cc2)NC(=O)[C@H](Cc2ccc(O)cc2)NC(=O)[C@H](CC(N)=O)NC(=O)[C@H](Cc2c[nH]c3ccccc23)NC(=O)[C@H](C(C)C)NC(=O)[C@H](Cc2cccc(Cl)c2)N(C)C(=O)[C@H](C(C)C)NC(=O)[C@H](C)NC(=O)CSC[C@@H](C(=O)NCCOCCOCCOCCOCCC(N)=O)NC(=O)[C@H](Cc2ccc(O)cc2)N(C)C(=O)[C@H](Cc2ccccc2)NC(=O)[C@H](CCCCNC(=O)N2CCN(CC(=O)O)CC2)NC(=O)[C@H](CCC(=O)NCCOCCOCCOCCOC)NC(=O)[C@H]([C@@H](C)CC)NC1=O [compound 116] ({CH2CO}-AV[NMePhe(3-Cl)]VWNYY(Carboxymethyl)IIE(NH(CH2CH2O)4Me)K([CO-Piperazinyl(4-CH2COOH)])F[NMeY]C[PEG4]-NH2; thioether N-15) is higher in Kd: < 1 nM for the first, 1 to 100 nM for the second.

First: CC[C@H](C)[C@@H]1NC(=O)[C@H](Cc2ccc(OCC(=O)O)cc2)NC(=O)[C@H](Cc2ccc(O)cc2)NC(=O)[C@H](CC(N)=O)NC(=O)[C@H](Cc2c[nH]c3ccccc23)NC(=O)[C@H](C(C)C)NC(=O)[C@H](Cc2cccc(Cl)c2)N(C)C(=O)[C@H](C(C)C)NC(=O)[C@H](C)NC(=O)CSC[C@@H](C(=O)NCCOCCOCCOCCOCCC(N)=O)NC(=O)[C@H](Cc2ccc(O)cc2)N(C)C(=O)[C@H](Cc2cccc(C(=O)O)c2)NC(=O)[C@H](CCCNC(=N)N)NC(=O)[C@H](CCC(=O)NC(COC)COC)NC(=O)[C@H]([C@@H](C)CC)NC1=O [compound 114] ({CH2CO}-AV[NMePhe(3-Cl)]VWNYY(Carboxymethyl)IIE(X4)R[Phe(3-COOH)][NMeY]C[PEG4]-NH2; thioether N-15)
Second: CC[C@H](C)[C@@H]1NC(=O)[C@H](Cc2ccc(OCC(=O)O)cc2)NC(=O)[C@H](Cc2ccc(O)cc2)NC(=O)[C@H](CC(N)=O)NC(=O)[C@H](Cc2cn(CC(=O)O)c3ccccc23)NC(=O)[C@H](C(C)C)NC(=O)[C@H](Cc2cccc(Cl)c2)N(C)C(=O)[C@H](C(C)C)NC(=O)[C@H](C)NC(=O)CSC[C@@H](C(=O)NCCOCCOCCOCCOCCC(N)=O)NC(=O)[C@H](Cc2ccc(O)cc2)N(C)C(=O)[C@H](Cc2ccccc2)NC(=O)[C@H](CCCCNC(=O)N2CCN(CC(=O)O)CC2)NC(=O)[C@H](CCC(=O)NCCOCCOCCOCCOC)NC(=O)[C@H]([C@@H](C)CC)NC1=O [compound 115] ({CH2CO}-AV[NMePhe(3-Cl)]V[Trp(1-CH2COOH)]NYY(Carboxymethyl)IIE(NH(CH2CH2O)4Me)K([CO-Piperazinyl(4-CH2COOH)])F[NMeY]C[PEG4]-NH2; thioether N-15)
The Kd of the first is lower: < 1 nM for the first, 1 to 100 nM for the second. The first binds more tightly here.
